# Laboratory results published in patent US6462178B1, “G protein” (Yong Hou Wong, priority 1999, dated 2002).
# Where two headings read alike, the source gives them in different places.
# T1: melatonin Mel1c receptor (Xenopus laevis, UniProt P49219)
# T1 construct: expressed in transfected cells; host or cells: COS-7
# T1 sequence (P49219 1-420): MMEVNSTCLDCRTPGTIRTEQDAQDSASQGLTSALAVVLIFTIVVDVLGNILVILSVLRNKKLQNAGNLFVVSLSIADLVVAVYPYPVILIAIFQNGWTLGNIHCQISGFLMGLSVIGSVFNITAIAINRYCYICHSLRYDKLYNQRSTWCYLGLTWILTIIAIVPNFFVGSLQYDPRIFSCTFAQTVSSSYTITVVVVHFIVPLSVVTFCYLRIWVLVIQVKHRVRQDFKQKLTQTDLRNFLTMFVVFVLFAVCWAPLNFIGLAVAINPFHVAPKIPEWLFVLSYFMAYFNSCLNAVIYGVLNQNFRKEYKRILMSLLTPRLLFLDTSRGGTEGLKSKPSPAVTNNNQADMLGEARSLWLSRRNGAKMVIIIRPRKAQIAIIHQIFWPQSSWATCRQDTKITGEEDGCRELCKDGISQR
# T2: melatonin Mel1b receptor (Homo sapiens, UniProt P49286)
# T2 construct: expressed in transfected cells; host or cells: COS-7
# T2 sequence (P49286 1-362): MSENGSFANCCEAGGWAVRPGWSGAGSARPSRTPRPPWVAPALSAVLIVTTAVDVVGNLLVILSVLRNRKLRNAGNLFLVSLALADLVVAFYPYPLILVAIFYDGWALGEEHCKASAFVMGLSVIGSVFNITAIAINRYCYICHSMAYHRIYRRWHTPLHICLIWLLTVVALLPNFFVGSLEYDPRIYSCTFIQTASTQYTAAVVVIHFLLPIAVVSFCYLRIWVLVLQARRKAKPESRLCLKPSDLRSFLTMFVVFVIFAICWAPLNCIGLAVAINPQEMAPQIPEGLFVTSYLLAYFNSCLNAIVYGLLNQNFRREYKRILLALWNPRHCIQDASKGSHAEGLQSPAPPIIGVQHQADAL
# T3: complement C5a receptor (Homo sapiens, UniProt P21730)
# T3 construct: expressed in transfected cells; host or cells: COS-7
# T3 sequence (P21730 1-350): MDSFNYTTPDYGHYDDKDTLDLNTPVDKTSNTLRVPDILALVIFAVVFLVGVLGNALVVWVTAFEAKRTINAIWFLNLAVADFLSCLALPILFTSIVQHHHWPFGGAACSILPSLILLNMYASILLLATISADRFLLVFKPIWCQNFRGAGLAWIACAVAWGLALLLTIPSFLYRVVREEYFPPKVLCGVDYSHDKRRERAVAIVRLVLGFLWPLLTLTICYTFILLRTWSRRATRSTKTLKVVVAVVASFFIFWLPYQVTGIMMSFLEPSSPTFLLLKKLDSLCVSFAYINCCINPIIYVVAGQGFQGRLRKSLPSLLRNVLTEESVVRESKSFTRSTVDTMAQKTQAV
# T4: melatonin Mel1b receptor
# T4 sequence (P49286 whole entry, species assumed, looked up): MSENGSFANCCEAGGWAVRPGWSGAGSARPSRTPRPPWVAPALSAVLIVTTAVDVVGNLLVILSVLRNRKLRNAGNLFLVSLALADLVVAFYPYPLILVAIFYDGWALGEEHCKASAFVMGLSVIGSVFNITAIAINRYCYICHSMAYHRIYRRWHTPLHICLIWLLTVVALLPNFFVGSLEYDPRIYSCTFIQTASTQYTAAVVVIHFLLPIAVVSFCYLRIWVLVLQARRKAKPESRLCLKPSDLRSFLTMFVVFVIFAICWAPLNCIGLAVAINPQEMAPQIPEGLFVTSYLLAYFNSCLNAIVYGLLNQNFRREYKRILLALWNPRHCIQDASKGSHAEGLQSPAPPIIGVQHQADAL
# Assays:
# α2-adrenergic receptor [1] = conditions: 1 μM UK14,304; for IP Formation % Res.: relative to basal
# δ-opioid receptor [2] = target: δ-opioid receptor
# δ-opioid receptor [3] = target: δ-opioid receptor; remark: listed apart in the source
# complement C5a receptor [4] = target: complement C5a receptor
# melatonin Mel1c receptor [5] = target: T1, melatonin Mel1c receptor; experiment: IP accumulation, melatonin Mel1c receptor coexpressed with Gα subunit in COS-7; format: cell-based; conditions: for IP Formation Agonist / IP Formation % Res.: 1 μM 2-iodomelatonin; for IP Formation % Res.: relative to basal
# melatonin Mel1a receptor [6] = target: T5, melatonin Mel1a receptor (Homo sapiens, UniProt P48039); experiment: IP accumulation, melatonin Mel1a receptor coexpressed with Gα subunit in COS-7; format: cell-based; conditions: 1 μM 2-iodomelatonin; for IP Formation % Res.: relative to basal
# T5 construct: expressed in transfected cells; host or cells: COS-7
# T5 sequence (P48039 whole entry): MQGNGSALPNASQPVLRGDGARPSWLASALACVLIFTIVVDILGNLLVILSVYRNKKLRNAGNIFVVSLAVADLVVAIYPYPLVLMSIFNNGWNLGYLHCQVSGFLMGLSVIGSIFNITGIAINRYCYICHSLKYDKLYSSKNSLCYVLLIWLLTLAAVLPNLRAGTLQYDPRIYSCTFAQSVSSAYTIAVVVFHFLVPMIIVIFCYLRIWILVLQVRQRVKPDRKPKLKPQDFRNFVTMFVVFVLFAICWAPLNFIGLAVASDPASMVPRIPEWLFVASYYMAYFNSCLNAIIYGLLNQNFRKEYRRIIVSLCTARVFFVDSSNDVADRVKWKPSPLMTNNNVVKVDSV
# melatonin Mel1b receptor [7] = target: T2, melatonin Mel1b receptor; experiment: IP accumulation, melatonin Mel1b receptor coexpressed with Gα subunit in COS-7; format: cell-based; conditions: 1 μM 2-iodomelatonin; for IP Formation % Res.: relative to basal
# [8] = target: somatostatin-1 receptor (SSTR1)
# δ-opioid receptor [9] = target: T6, δ-opioid receptor (Homo sapiens, UniProt P41143); experiment: IP accumulation, δ-opioid receptor coexpressed with Gα subunit in COS-7; format: cell-based; conditions: for IP Formation Agonist / IP Formation % Res.: 100 nM DPDPE; for IP Formation % Res.: relative to basal; for stimulation of IP formation: 100 nM
# T6 construct: expressed in transfected cells; host or cells: COS-7
# T6 sequence (P41143 whole entry): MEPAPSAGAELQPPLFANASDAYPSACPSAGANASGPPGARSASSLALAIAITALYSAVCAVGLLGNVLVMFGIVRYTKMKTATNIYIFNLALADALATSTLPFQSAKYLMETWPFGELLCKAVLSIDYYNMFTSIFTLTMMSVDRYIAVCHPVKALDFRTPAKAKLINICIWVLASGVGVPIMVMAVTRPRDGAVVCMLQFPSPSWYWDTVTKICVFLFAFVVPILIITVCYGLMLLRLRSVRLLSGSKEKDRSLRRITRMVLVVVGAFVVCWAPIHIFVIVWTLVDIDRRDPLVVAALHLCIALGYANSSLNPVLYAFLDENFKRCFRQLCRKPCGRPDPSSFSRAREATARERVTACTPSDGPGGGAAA
# [10] = target: formyl peptide (fMLP) receptor
# complement C5a receptor [11] = target: T3, complement C5a receptor; experiment: IP accumulation, complement C5a receptor coexpressed with Gα subunit in COS-7; format: cell-based; conditions: 100 nM C5a; for IP Formation % Res.: relative to basal
# melatonin Mel1b receptor [12] = target: T4, melatonin Mel1b receptor
# melatonin Mel1c receptor [13] = target: melatonin Mel1c receptor
# melatonin Mel1a receptor [14] = target: melatonin Mel1a receptor
# α2-adrenergic receptor [15] = target: α2-adrenergic receptor
# [16] = COS-7, receptor + 16z25 chimera
# [17] = COS-7, receptor + 16z44 chimera
molecule,measurement,setting,value
"Brc1c(NC2=NCCN2)ccc2nccnc12 [UK14,304]",IP Formation Agonist,α2-adrenergic receptor [1]; [16],116.1 ± 8.8
same,IP Formation % Res.,α2-adrenergic receptor [1]; [16],365%
same,IP Formation Agonist,α2-adrenergic receptor [1]; [17],126.7 ± 1.5
same,IP Formation % Res.,α2-adrenergic receptor [1]; [17],297%
same,IP Formation Agonist,"α2-adrenergic receptor [1]; COS-7, receptor + Gα16",107.4 ± 9.6
same,IP Formation % Res.,"α2-adrenergic receptor [1]; COS-7, receptor + Gα16",730%
"[D-Pen^2,D-Pen^5]enkephalin (peptide)",EC50 for IP formation (cells coexpressing 16z44),δ-opioid receptor [2],10 nM
same,EC50 for IP formation (cells coexpressing Gα16),δ-opioid receptor [2],40 nM
same,IP formation with agonist (cells coexpressing 16z44) (IP formation (unit not given)),δ-opioid receptor [3],122
C5a (ligand),IP formation with agonist (cells coexpressing 16z44) (IP formation (unit not given)),complement C5a receptor [4],87.4
vasopressin (peptide),IP formation with agonist (cells coexpressing 16z44) (IP formation (unit not given)),vasopressin V2 receptor,59.8
COc1ccc2[nH]c(I)c(CCNC(C)=O)c2c1 [2-iodomelatonin],EC50,"melatonin Mel1c receptor [5]; COS-7, Mel1c + 16z44, read-out: EC50, formation of IP",~0.4 nM
same,stimulation of PLC activity,"melatonin Mel1c receptor [5]; COS-7, Mel1c + Gα16, 0.03-100 nM",did not stimulate PLC activity
same,IP Formation Agonist,melatonin Mel1c receptor [5]; [16],42.5 ± 6.7
same,IP Formation % Res.,melatonin Mel1c receptor [5]; [16],270%
same,IP Formation Agonist,melatonin Mel1c receptor [5]; [17],86.8 ± 7.0
same,IP Formation % Res.,melatonin Mel1c receptor [5]; [17],307%
same,IP Formation % Res.,"melatonin Mel1c receptor [5]; COS-7, receptor + Gα16",115%
same,IP Formation Agonist,melatonin Mel1a receptor [6]; [16],80.4 ± 4.0
same,IP Formation % Res.,melatonin Mel1a receptor [6]; [16],150%
same,IP Formation Agonist,melatonin Mel1a receptor [6]; [17],91.9 ± 8.8
same,IP Formation % Res.,melatonin Mel1a receptor [6]; [17],171%
same,IP Formation Agonist,"melatonin Mel1a receptor [6]; COS-7, receptor + Gα16",45.6 ± 6.0
same,IP Formation % Res.,"melatonin Mel1a receptor [6]; COS-7, receptor + Gα16",296%
same,IP Formation Agonist,melatonin Mel1b receptor [7]; [16],108.3 ± 3.6
same,IP Formation % Res.,melatonin Mel1b receptor [7]; [16],155%
same,IP Formation Agonist,melatonin Mel1b receptor [7]; [17],113.2 ± 7.3
same,IP Formation % Res.,melatonin Mel1b receptor [7]; [17],177%
same,IP Formation Agonist,"melatonin Mel1b receptor [7]; COS-7, receptor + Gα16",31.7 ± 2.3
same,IP Formation % Res.,"melatonin Mel1b receptor [7]; COS-7, receptor + Gα16",195%
somatostatin (peptide),EC50 for IP formation (cells coexpressing 16z44),[8],3 nM
same,EC50 for IP formation (cells coexpressing Gα16),[8],20 nM
"[D-Pen^2,D-Pen^5]enkephalin [DPDPE]",IP Formation Agonist,δ-opioid receptor [9]; [16],66.8 ± 7.1
same,IP Formation % Res.,δ-opioid receptor [9]; [16],287%
same,IP Formation Agonist,δ-opioid receptor [9]; [17],121.8 ± 9.1
same,IP Formation % Res.,δ-opioid receptor [9]; [17],548%
same,IP Formation Agonist,"δ-opioid receptor [9]; COS-7, receptor + Gα16",42.2 ± 6.1
same,IP Formation % Res.,"δ-opioid receptor [9]; COS-7, receptor + Gα16",417%
same,"maximal stimulation, 16z44-mediated relative to Gα16-mediated response","δ-opioid receptor [9]; COS-7, δ-opioid receptor",twice that of the Gα16-mediated response
same,DPDPE response (IP formation),"δ-opioid receptor [9]; COS-7, δ-opioid receptor + 16z3, 16z6 or 16z66",failed to mediate the DPDPE response
same,IP formation,"δ-opioid receptor [9]; COS-7, δ-opioid receptor + 30z16",doubled the IP formation
same,response to agonist-activated δ-opioid receptor (IP formation),"δ-opioid receptor [9]; COS-7, δ-opioid receptor + 30z16z66",unable to respond
same,stimulation of IP formation,δ-opioid receptor [9]; COS-7 coexpressing Gα16 and δ-opioid receptor,3 fold
same,stimulation of IP formation,δ-opioid receptor [9]; COS-7 coexpressing δ-opioid receptor with either 16z25 or 16z44,3-4.5 folds
same,formation of IP,"δ-opioid receptor [9]; COS-7 cotransfected with δ-opioid receptor and Gαz, agonist treatment",failed to evoke formation of IP
N-formylmethionyl-leucyl-phenylalanine (peptide),IP formation with agonist (cells coexpressing 16z44) (IP formation (unit not given)),[10],91.6
"[D-Ala^2,N-Me-Phe^4,Gly^5-ol]enkephalin (peptide)",IP formation with agonist (cells coexpressing 16z44) (IP formation (unit not given)),µ-opioid receptor,68.5
bombesin (peptide),IP formation with agonist (control cells without 16z44) (IP formation (unit not given)),bombesin receptor,149
"C5a: complement C5a, agonist of the C5a receptor (protein, UniProt P01031 678-751, looked up, C5a anaphylatoxin, complement C5a, agonist of the C5a receptor) C5a anaphylatoxin: TLQKKIEEIAAKYKHSVVKKCCYDGACVNNDETCEQRAARISLGPRCIKAFTECCVVASQLRANISHKDMQLGR",IP Formation Agonist,complement C5a receptor [11]; [16],79.6 ± 6.5
same,IP Formation % Res.,complement C5a receptor [11]; [16],432%
same,IP Formation Agonist,complement C5a receptor [11]; [17],87.4 ± 7.2
same,IP Formation % Res.,complement C5a receptor [11]; [17],457%
same,IP Formation Agonist,"complement C5a receptor [11]; COS-7, receptor + Gα16",67.5 ± 8.1
same,IP Formation % Res.,"complement C5a receptor [11]; COS-7, receptor + Gα16",608%
Gα16 (protein) MARSLTWRCCPWCLTEDEKAAARVDQEINRILLEQKKQDRGELKLLLLGPGESGKSTFIKQMRIIHGAGYSEEERKGFRPLVYQNIFVSMRAMIEAMERLQIPFSRPESKHHASLVMSQDPYKVTTFEKRYAAAMQWLWRDAGIRACYERRREFHLLDSAVYYLSHLERITEEGYVPTAQDVLRSRMPTTGINEYCFSVQKTNLRIVDVGGQKSERKKWIHCFENVIALIYLASLSEYDQCLEENNQENRMKESLALFGTILELPWFKSTSVILFLNKTDILEEKIPTSHLATYFPSFQGPKQDAEAAKRFILDMYTRMYTGCVDGPEGSKKGARSRRLFSHYTCATDTQNIRKVFKDVRDSVLARYLDEINLL,"IP formation (PLC stimulation), % Res.",complement C5a receptor [4],608 % Res.
same,"IP formation (PLC stimulation), % Res.",δ-opioid receptor [3],417 % Res.
same,"IP formation (PLC stimulation), % Res.",melatonin Mel1b receptor [12],195 % Res.
same,"IP formation (PLC stimulation), % Res.",melatonin Mel1c receptor [13],115 % Res.
same,"IP formation (PLC stimulation), % Res.",µ-opioid receptor,134 % Res.
same,"IP formation (PLC stimulation), % Res.",κ-opioid receptor,327 % Res.
same,"IP formation (PLC stimulation), % Res.",vasopressin V2 receptor,332 % Res.
same,"IP formation (PLC stimulation), % Res.",melatonin Mel1a receptor [14],296 % Res.
same,"IP formation (PLC stimulation), % Res.",[10],566 % Res.
same,"IP formation (PLC stimulation), % Res.",α2-adrenergic receptor [15],730 % Res.
